# System: normal human dermal fibroblasts (NHDF)
# Assay: Identification of biological processes involved (DAVID / Gene Ontology functional annotation of modulated genes)
# Conditions: 10 mg/ml, p-value≤0.05
# Source text: Gene Ontology database has been more specifically used for the data interpretation. DAVID functional annotation part was used to cluster modulated genes into significant biological processes. […] DAVID database uses the Gene Ontology consortium (http://www.geneontology.org) vocabularies (GO terms) to describe gene products in terms of their associated biological processes. Among them, only biological processes with p-value≤0.05 were taken into account.
# The gene modulations of NHDF treated with compound 1 (10 mg/ml), compound 3 (10 mg/ml) and compound 4 (10 mg/ml) vs control were analysed to cluster modulated genes into significant biological processes (p-value≤0.05).
row,SMILES,main biological processes involved
1,C[C@H](NC(=O)[C@H](C)NC(=O)[C@@H](N)CCCCNCC(F)(F)[C@]1(O)O[C@H](CO)[C@H](O)[C@H](O)[C@H]1O)C(=O)O [Compound 1],the lipid metabolic process and the cholesterol biosynthetic process
2,N[C@@H](CCCCNCC(F)(F)[C@]1(O)O[C@H](CO)[C@H](O)[C@H](O)[C@H]1O)C(=O)O [Compound 3],the lipid metabolic process and the cholesterol biosynthetic process
3,CC(=O)N(CCCC[C@H](N)C(=O)O)CC(F)(F)[C@]1(O)O[C@H](CO)[C@H](O)[C@H](O)[C@H]1O [Compound 4],the lipid metabolic process and the cholesterol biosynthetic process but also the ceramide metabolic process

# — patent US20220267380A1, “Glycopeptides Increasing Lipid Synthesis” (TFCHEM, priority 2019, published 2022)
